Experimental data taken from publication PMC8043168, “Tribolium castaneum defensin 1 kills Moraxella catarrhalisin an in vitro infection model but does not harm commensal bacteria” (Virulence, 2021).
Bridge positions count the residues as written; N and C are the ends.

Assays:
M. catarrhalis = experiment: AMP inhibitory testing without macrophages, dilution and plating (Figure S1); assay type: cell-based, Moraxella catarrhalis
Experimental: Colonies of M. catarrhalis were grown on sheep blood agar plates for 12 h at 37°C and 5% CO2 before transfer to brain heart infusion (BHI) medium (Carl Roth, Karlsruhe, Germany) at an initial concentration of 1.6 × 10^7 cells/ml (OD600 = 0.08) as determined using an Ultraspec 10 cell densitometer (Amersham BioSciences, Little Chalfont, UK). Bacteria were cultivated in a shaking incubator at 37°C until the concentration reached 1.2 × 10^8 cells/ml (OD600 = 0.6) and then diluted to 2 × 10^6 cells/ml (OD600 = 0.011). To establish the optimal concentration ranges for AMP activity, defensin 1 was prepared as a two-fold dilution series from 12.5 µM to 1.56 µM and was added to the bacterial cultures, which were incubated as above for a further 16 h. Untreated cultures were used as controls. The OD600 was measured automatically at 30-min intervals using an Infinite M200 Pro plate reader (Tecan Life Sciences, Männedorf, Switzerland). […] They were cultivated for a further 15 h at 37°C and 5% CO2 in serial dilution before manual counting of the colonies on each plate.

[1] = tested on: BDMs infected with M. catarrhalis; experiment: qRT-PCR of cytokine mRNA in infected BDMs; assay type: cell-based, human; conditions: defensin 1 12.5 µM given 1 or 5 h after infection, MOI 0.5 or 1; collected 16 h post-infection
Experimental: BDMs were infected with M. catarrhalis as described above and the cells and supernatant were collected 16 h post-infection. Total RNA was isolated by phenol-chloroform extraction followed by reverse transcription using the High-Capacity RNA-to-cDNA kit (Thermo Fisher Scientific, Waltham, MA, USA). Quantitative real-time PCR (qRT-PCR) was performed with the following specific primer pairs to measure the expression of IL-1β (forward primer 5′-AGCTCGCCAGTGAAATGATGG-3′ and reverse primer 5′-CAGGTCCTGGAAGGAGCACTTC-3′), IL-8 (forward primer 5′-ACTGAGAGTGATTGAGAGTGGAC-3′ and reverse primer 5′-AACCCTCTGCACCCAGTTTTC-3′), and RPS18 (forward primer 5′-GCGGCGGAAAATAGCCTTTG-3′ and reverse primer 5′-GATCACACGTCCACCTCATC-3′).

[2] = tested on: BDMs infected with M. catarrhalis; experiment: Multiplex ELISA of cytokines in BDM supernatant after infection; assay type: cell-based, human; conditions: defensin 1 12.5 µM, 1 or 5 h post-infection, MOI 0.5 or 1
Experimental: The presence of cytokines in the BDM supernatant after infection and treatment with 12.5 µM defensin 1 was assessed using the MAGPIX Multiplex ELISA (Luminex, Austin, TX, USA). BDM supernatants were prepared as recommended for the MAGPIX system. The cytokine panel comprised MIP1-α, MCP1, IL-1β, IL-6, IL-8, IL-10, IL-12p70, IL-23, LAP and TNF-α.
Statistical interpretation of the multiplex ELISA data required the incorporation of data points outside the detection range and adjustments for the effect of parallel technical measurements from the same biological samples. We therefore used the Hodges and Lehmann nonparametric aligned ranks test to compare cytokine secretion by treatment time within treatment groups and between the following control and treatment groups: […]

E. faecalis = experiment: Growth kinetics of commensal E. faecalis; assay type: cell-based, Enterococcus faecalis; conditions: liquid BHI medium, 37°C, OD600 every 30 min; defensin 1 12.5 µM, sarcotoxin 1 C 0.39 µM
Experimental: For the analysis of commensal bacteria, E. faecalis was grown on Columbia agar plates or in liquid BHI medium, and E. coli was grown on McConkey agar or in liquid LB medium. After overnight culture on agar plates at 37°C and 5% CO2, both species were transferred to liquid medium at an initial OD600 of 0.005. The cultures were maintained in a shaking incubator at 37°C, and the OD600 was measured automatically at 30-min intervals as above.

Streptococcus pneumoniae = conditions: cited from earlier work
Text: Among the 23 AMPs we tested, only defensin 1 was previously found to be effective against the Gram-positive pathogen Streptococcus pneumoniae. It is unclear whether the eﬃcacy of defensin 1 indeed lies in the structure of the peptide and whether other AMPs with different structures would also show activity against M. catarrhalis. We therefore also investigated L. sericata sarcotoxin 1 C, which has a linear α-helical structure without disulfide bridges.

[3] = tested on: commensal species (E. faecalis and E. coli); conditions: previous study; cited from earlier work
Text: We furthermore tested the effect of defensin 1 and sarcotoxin 1 C on the commensals E. faecalis and E. coli. Selectivity of AMPs may provide an important therapeutic advantage over broad-spectrum antibiotics because AMPs targeting pathogens but not commensals would avoid the common side effects of antibiotic therapy. […] Sarcotoxin 1 C was previously shown to inhibit 90% of clinical multidrug-resistant isolates of Ent ...

For “H-VTCDLLSAEAKGVKVNHAACAAHCLLKRKRGGYCNKRRICVCRN-OH (disulfide 3-34, 20-40, 24-42 (inferred)) [Defensin 1]”, the “effect on bacterial growth upon dilution of the AMP by plating” value (M. catarrhalis; defensin 1 12.5 µM or sarcotoxin 1 C 0.39 µM in BHI, diluted in PBS with 0.15% gelatin, plated on sheep blood agar, 15 h, Figure S1) was “efficiently killed the bacteria”, the “bactericidal or bacteriostatic capacity” value (M. catarrhalis; growth of M. catarrhalis after dilution of the AMP) was “bactericidal” and the “IL-1β expression (mRNA, qRT-PCR)” value [1] was “limited the expression”. The “IL-8 expression (mRNA, qRT-PCR)” value [1] was “limited the expression”, the “bacteria-induced secretion of IL-1β” value [2] was “inhibited” and the “bacteria-induced secretion of IL-10” value [2] was “inhibited”. For the same substance, the “bacteria-induced secretion of IL-12p70” value [2] was “inhibited”, the “bacteria-induced secretion of IL-23” value [2] was “inhibited” and the “effect on growth of E. faecalis” value (E. faecalis) was “minor growth delay”. The “effective against Streptococcus pneumoniae” value (Streptococcus pneumoniae) was “effective” and the “effect against commensal species (E. faecalis, E. coli)” value [3] was “no effect”.
